Assay results: patent US20060210622A1, “Surface modified particulate compositions of biologically active substances” (Skyepharma Canada Inc., priority 1999, published 2006)
≈ marks a conversion by molar mass, not a printed value.

How the values were obtained:
physchem = assay type: physicochemical
Protocol: Solubility of biologically active substances, particularly drug substances in lipophilic and hydrophilic solvents. […] The solvents mentioned in the following table were evaluated. Solubilities, determined by high performance liquid chromatography (HPLC) assay of the dissolved drug in water and several non-aqueous vehicles, are given the following table in units of mg/mL. Low solubility of this drug in either water or organic solvents renders it suitable for formulating as a stable surface modified particulate dispersion in a non-aqueous carrier system.

[1] = Precipitation behavior of benzyl benzoate solution transferred to water, optical microscope under polarized light; assay type: physicochemical
Excerpt: A portion of the ursodiol solution in benzyl benzoate was transferred to water and shaken. A mixture containing oily droplets resulted. […] This observation makes it possible to further prepare compositions of ursodiol utilizing appropriate solvent system and surface active agents so that micron-sized particle will be generated spontaneously upon addition of these compositions in aqueous media.

| Solubility in pharmaceutically acceptable lipophilic vehicles (physchem) | solubility (physchem; water, Solubility of Itraconazole) [mg/mL] | Size of crystalline particles observed in the mixture ([1]; benzyl benzoate solution in water, optical microscope, polarized light) | Precipitation on transfer of solution to water ([1]; benzyl benzoate solution transferred to water and shaken) | Compound |
| --- | --- | --- | --- | --- |
| very poorly soluble | 0.01 (≈ 14.2 µM) |  |  | CCC(C)n1ncn(-c2ccc(N3CCN(c4ccc(OCC5COC(Cn6cncn6)(c6ccc(Cl)cc6Cl)O5)cc4)CC3)cc2)c1=O (stereo not shown) [Itraconazole] |
|  |  | below 10 micron | No precipitation was seen occurring | C[C@H](CCC(=O)O)[C@H]1CC[C@H]2[C@@H]3[C@@H](O)C[C@@H]4C[C@H](O)CC[C@]4(C)[C@H]3CC[C@]12C [ursodiol] |
